Key:
hGPR40 [1] = biological target: T1, hGPR40 (Homo sapiens, UniProt O14842); assay: Human beta-arrestin agonist assay with 1% FBS (hEK293-hFFAR1 cells); assay type: cell-based; set-up: host or cells: HEK293 (hEK293-hFFAR1); details: n=2
From the text: (§1) Human embryonic kidney (hEK293)-hFFAR1 cells are purchased from DiscoveRx. Human osteosarcoma (U205) cells expressing mFFAR1 are developed by DiscoveRX. These cells co-express the Prolink (PK)-tagged GPR40 and the Enzyme Acceptor (EA)-tagged beta-arrestin fusion proteins. If activation of the GPR40 stimulates beta-arrestin recruitment, it would force complementation of the beta galactosidase (B-gal) enzyme fragments, forming a B-gal enzyme that generates a chemiluminescent signal using the DiscoveRx PathHunter detection kit. Cells are incubated overnight at 5,000 cells/well in 384 well plates in culture media containing 1% FBS (fetal bovine serum). Serial diluted compounds in DMSO (2× dilutions to generate 20 concentrations) are step down diluted in culture media containing 1% FBS (fetal bovine serum) and added to cells with a final top concentration starting of 100 μM. After addition of compounds, cells are incubated for 90 min at 37° C. in 5% CO2 incubator, and DiscoveRX kit detection reagents are added. Measurement of the chemiluminescent signal is ascertained with the Envision reader, after a 1-hour incubation at room temperature. Data are fit to a 4 parameter-fit logistics to determine EC50 values, % activity is measured versus maximum response to an internal standard GPR40 agonist standard, TAK875, at 1 μM.
Target sequence in this assay (O14842 whole entry, the tested form may be a part): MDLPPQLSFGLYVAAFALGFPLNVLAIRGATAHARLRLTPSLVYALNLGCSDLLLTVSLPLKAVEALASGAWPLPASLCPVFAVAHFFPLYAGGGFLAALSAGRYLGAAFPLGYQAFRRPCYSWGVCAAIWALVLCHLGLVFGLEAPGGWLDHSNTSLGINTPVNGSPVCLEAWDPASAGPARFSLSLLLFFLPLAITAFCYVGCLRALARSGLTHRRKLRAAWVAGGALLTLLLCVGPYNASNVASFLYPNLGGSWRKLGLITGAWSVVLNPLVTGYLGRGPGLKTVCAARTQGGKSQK
Target sequence in this assay (P32121 whole entry partner, the tested form may be a part): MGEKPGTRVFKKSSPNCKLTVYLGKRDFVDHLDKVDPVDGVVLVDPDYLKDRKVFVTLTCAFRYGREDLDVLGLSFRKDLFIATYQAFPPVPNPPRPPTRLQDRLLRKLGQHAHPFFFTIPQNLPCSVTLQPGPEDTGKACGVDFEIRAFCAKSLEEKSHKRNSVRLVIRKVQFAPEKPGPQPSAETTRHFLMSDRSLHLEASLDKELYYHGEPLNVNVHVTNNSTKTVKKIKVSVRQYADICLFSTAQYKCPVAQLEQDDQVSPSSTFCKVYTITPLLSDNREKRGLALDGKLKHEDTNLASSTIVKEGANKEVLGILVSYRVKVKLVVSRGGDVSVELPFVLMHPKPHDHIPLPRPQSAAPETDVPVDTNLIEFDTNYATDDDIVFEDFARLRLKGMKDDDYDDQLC

PPAR = PPAR α, δ, and γ functional assays (overall statement); assay type: cell-based; details: PPARα, PPARδ and PPARγ reporter assays; efficacy of <20% is considered negative
From the text: (§2) Because GPR40 is known to be activated by ligands to PPARγ, exemplified compounds are examined in Ga14 PPARα, Ga14 PPARδ, and PPARγ reporter assays to determine the selectivity of exemplified compounds. CV1 cells, which are derived from the renal tissue of an African green monkey, are transfected with various receptor and reporter plasmids using Fugene. For the Ga14 PPARα and PPARδ assays, a reporter plasmid containing five tandem copies of the yeast transcription protein Ga14 response element, cloned upstream of a firefly luciferase gene driven by the major late promoter of adenovirus, is transfected together with a Simian Virus 40 (SV40) driven plasmid constitutively expressing a hybrid protein containing the Ga14 DNA binding domain (DBD), and either the PPARα or PPARδ ligand binding domain. […] After 24 hours incubation with compounds, cells are lysed and luciferase activity is determined as a measure of receptor activation by luminescence. […] The maximum percent stimulation is determined versus maximum stimulation obtained with 10 μM of an appropriated PPAR agonist reference compound, 2-methyl-2-(4-{2-methyl-3-[2-(phenylcarbonyl)-4-(trifluoromethoxy)phenoxy]propoxy}phenoxy)propanoic acid. […]

hGPR40 [2] = biological target: T1, hGPR40; assay: Calcium Flux Primary Assay (FLIPR); assay type: cell-based; set-up: expressed in transfected cells; host or cells: HEK293; details: mean, SEM
Protocol: HEK293 cells over expressing the human GPR40 cDNA maintained in Dulbecco's modified Eagle's medium with F12 medium in 3:1 ratio supplemented with 10% FBS and 800 μg/ml geneticin at 37° C. and 5% CO2 are employed for the study. Agonist assays are performed using a Calcium 4 Dye assay kit (Molecular Devices) in the presence or absence of 0.1% fatty acid free BSA in the assay buffer (1×HBSS (Hank's Balanced Salt Solution) & 20 mM HEPES (4-(2-hydroxyethyl)-1-piperazineethanesulfonic acid). Receptor activation is measured as an increase in intracellular calcium using the Fluorometric Imaging Plate Reader (FLIPR). Maximum change in fluorescence over the base line is used to determine the agonist response. The EC50 value of the compound is calculated using Excel Fit software (version 4; IDBS) by plotting concentration vs relative fluorescence units (RFUs). […] (Mean±SEM; SEM=standard error of the mean.)
Target sequence in this assay (O14842 whole entry, the tested form may be a part): as the sequence (O14842 whole entry, the tested form may be a part) above

PPARδ = biological target: T2, PPARδ (Homo sapiens, UniProt Q03181); assay: Ga14 PPARδ reporter functional assay in CV1 cells; assay type: cell-based; details: 24 hours incubation, luciferase
T2 construct: expressed in transfected cells; host or cells: CV1 (African green monkey kidney)
T2 sequence (Q03181 211-439 limits assumed): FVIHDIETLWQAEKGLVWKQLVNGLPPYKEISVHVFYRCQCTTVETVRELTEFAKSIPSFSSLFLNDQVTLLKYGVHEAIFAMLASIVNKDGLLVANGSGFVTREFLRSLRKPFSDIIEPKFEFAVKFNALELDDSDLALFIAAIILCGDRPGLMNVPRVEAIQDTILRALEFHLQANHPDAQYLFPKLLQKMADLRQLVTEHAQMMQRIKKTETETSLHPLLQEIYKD
From the text: as §2

human GPR40 (hGPR40) = biological target: T3, human GPR40 (hGPR40) (Homo sapiens, UniProt O14842); assay: Radioligand competition binding assay with [3H]-TAK-875, HEK293 membranes; details: 5 nM [3H]-TAK-875; Cheng-Prusoff; mean, SEM
T3 construct: expressed in transfected cells; host or cells: HEK293 (membranes)
T3 sequence (O14842 whole entry): as the sequence (O14842 whole entry, the tested form may be a part) above
From the text: Competition curves are plotted as the percent specific inhibition versus concentration of compound and analyzed using a four parameter nonlinear regression fit with variable slope. […] See Cheng, Y. and Prusoff, W. H. (1973) “Relationship between the inhibition constant (Ki) and the concentration of inhibitor which causes 50 percent inhibition (IC50) of an enzymatic reaction”, Biochem Pharmacol 22(23):3099-108.

mGPR40 = mGPR40 (Mus musculus, UniProt Q76JU9); assay: Mouse beta-arrestin agonist assay with 1% FBS (U205 cells expressing mFFAR1); assay type: cell-based; details: n=3
mGPR40, sequence (Q76JU9 whole entry): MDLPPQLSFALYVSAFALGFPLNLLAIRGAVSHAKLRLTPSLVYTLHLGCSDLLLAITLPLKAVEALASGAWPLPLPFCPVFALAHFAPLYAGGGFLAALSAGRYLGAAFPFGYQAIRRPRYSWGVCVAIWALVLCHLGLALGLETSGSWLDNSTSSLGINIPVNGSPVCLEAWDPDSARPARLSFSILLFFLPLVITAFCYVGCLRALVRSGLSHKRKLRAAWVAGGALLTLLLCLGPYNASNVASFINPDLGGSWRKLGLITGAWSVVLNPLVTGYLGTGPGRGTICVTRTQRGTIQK
mGPR40, sequence (P32121 whole entry partner): as the sequence (P32121 whole entry partner, the tested form may be a part) above
From the text: as §1

PPARγ = biological target: T4, PPARγ (Homo sapiens, UniProt P37231); assay: PPARγ reporter functional assay in CV1 cells; assay type: cell-based; details: PPARγ and RXRα, 24 hours incubation, luciferase
T4 construct: expressed in transfected cells; host or cells: CV1 (African green monkey kidney)
T4 sequence (P37231 1-505): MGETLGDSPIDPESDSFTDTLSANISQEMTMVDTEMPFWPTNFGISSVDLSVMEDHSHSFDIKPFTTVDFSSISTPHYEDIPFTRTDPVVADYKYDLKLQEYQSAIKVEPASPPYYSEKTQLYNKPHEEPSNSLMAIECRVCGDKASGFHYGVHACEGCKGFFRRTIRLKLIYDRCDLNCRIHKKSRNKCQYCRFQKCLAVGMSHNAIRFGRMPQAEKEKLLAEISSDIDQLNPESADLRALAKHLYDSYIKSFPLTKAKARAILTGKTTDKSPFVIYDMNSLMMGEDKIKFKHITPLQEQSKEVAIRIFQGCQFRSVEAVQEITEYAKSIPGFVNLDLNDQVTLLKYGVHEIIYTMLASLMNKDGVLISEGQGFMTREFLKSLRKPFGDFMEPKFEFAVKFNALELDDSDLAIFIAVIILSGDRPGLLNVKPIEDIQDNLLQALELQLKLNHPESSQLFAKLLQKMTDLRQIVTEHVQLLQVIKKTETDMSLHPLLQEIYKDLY
T4 sequence (P19793 1-462 partner): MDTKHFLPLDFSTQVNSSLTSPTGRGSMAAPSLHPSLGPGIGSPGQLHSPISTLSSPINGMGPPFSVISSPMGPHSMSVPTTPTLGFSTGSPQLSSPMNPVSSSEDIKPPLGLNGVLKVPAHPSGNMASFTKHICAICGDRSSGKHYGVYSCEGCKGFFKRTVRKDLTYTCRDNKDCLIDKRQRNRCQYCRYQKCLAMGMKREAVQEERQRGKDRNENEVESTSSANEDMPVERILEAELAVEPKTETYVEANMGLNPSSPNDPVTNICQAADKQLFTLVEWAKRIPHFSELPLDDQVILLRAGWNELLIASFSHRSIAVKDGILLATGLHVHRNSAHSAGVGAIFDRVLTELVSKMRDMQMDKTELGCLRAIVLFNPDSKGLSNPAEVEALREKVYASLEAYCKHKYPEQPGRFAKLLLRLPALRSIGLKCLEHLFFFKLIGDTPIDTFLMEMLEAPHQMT
From the text: as §2

Human GPR40 membranes = biological target: T5, Human GPR40 membranes (Homo sapiens, UniProt O14842); assay: Competition binding kinetics, receptor residence time; details: 6-8 nM [3H] TAK875; mean, SEM, n=4; read-out: GPR40 Residence time, τ
T5 construct: expressed in transfected cells; host or cells: HEK293 (membranes)
T5 sequence (O14842 whole entry): as the sequence (O14842 whole entry, the tested form may be a part) above
Protocol: The association and dissociation rates of unlabeled compounds are quantified using the method described by Motulsky, H. J. and L. C. Mahan (1984), “The kinetics of competitive radioligand binding predicted by the law of mass action” Mol Pharm 25(1): 1-9. Human GPR40 membranes are incubated at various time points with 6-8 nM [^3H] TAK875 in the absence or presence of 1× Ki, 3× Ki, or 10× Ki unlabeled compound. Separation of bound and free radioligand is performed using rapid-wash filtration onto glass fiber filters and counted in a liquid scintillation counter. Rates are calculated by fitting the data to the kinetics of competitive binding model in GraphPad Prism 6, version 6.03 for Windows, GraphPad Software, La Jolla Calif. USA, www.graphpad.com.

PPARα = biological target: T6, PPARα (Homo sapiens, UniProt Q07869); assay: Ga14 PPARα reporter functional assay in CV1 cells; assay type: cell-based; details: 24 hours incubation, luciferase
T6 construct: expressed in transfected cells; host or cells: CV1 (African green monkey kidney)
T6 sequence (Q07869 239-466 limits assumed): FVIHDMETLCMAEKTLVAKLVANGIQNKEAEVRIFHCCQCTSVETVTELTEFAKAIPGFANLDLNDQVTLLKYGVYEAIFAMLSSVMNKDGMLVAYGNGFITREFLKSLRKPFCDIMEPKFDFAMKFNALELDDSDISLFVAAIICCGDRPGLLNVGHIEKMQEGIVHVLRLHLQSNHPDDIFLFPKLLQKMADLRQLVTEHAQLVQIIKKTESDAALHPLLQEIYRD
From the text: as §2

[3] = versus maximum response to TAK875 at 1 μM

## CC#C[C@@H](CC(=O)O)c1ccc(OCc2cc(-c3c(C)cc(OC)cc3C)c3nc(C(C)C)nn3c2)cc1 [Example 1, (S)-3-{4-[2-Isopropyl-8-(4-methoxy-2,6-dimethyl-phenyl)-[1,2,4]triazolo[1,5-a]pyridin-6-ylmethoxy]-phenyl}-hex-4-ynoic acid]
hGPR40 [1]; 1% FBS, 90 min, mean, SEM, read-out: hGPR40 b-arrestin EC50
  EC50: 0.0306 µM
hGPR40 [1]; [3]
  % stimulation max (FA), hGPR40 b-arrestin: 170%
PPAR
  PPAR activity / efficacy (in words): weak PPAR activity
hGPR40 [2]; HEK293 cells over expressing human GPR40
  EC50: 0.247 µM
hGPR40 [2]; maximal response compared to natural ligand linoleic acid
  efficacy: 78.7%
PPARδ
  EC50: 4 µM
Human GPR40 (hGPR40)
  Ki: 0.0158 µM
mGPR40; 1% FBS, 90 min, mean, SEM, read-out: mGPR40 b-arrestin EC50
  EC50: 0.00487 µM
mGPR40; [3]
  % stimulation max (FA), mGPR40 b-arrestin: 149%
PPARγ
  EC50: 2.26 µM
Human GPR40 membranes
  residence time: 169 min
PPARα
  EC50: > 10 µM
